In US20240182445A1 (ONO PHARMACEUTICAL CO., LTD., priority 2019, published 2024) one finds IC50 data, which are given here for 22 molecules.

The first test addresses T1, human TREK-1 (Homo sapiens, UniProt O95069).
T1 construct: expressed in transfected cells
T1 sequence (O95069 1-426): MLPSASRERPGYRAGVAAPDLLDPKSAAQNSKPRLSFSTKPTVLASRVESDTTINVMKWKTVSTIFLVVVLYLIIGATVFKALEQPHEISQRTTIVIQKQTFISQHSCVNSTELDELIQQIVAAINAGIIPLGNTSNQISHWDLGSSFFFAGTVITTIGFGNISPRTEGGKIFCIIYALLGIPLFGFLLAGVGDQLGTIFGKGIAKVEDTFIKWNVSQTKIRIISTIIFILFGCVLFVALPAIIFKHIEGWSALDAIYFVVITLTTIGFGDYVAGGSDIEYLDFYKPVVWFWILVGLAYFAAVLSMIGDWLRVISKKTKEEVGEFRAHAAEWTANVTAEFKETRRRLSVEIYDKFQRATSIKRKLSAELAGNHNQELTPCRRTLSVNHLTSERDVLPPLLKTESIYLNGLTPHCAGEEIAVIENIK
In words: TREK-1 Thallium (Tl+) flux assay, Method 1. Particulars: TREK-1 Thallium (Tl+) flux assay, Method 1. Type of test: cell-based. As for the experimental part:
The term “thallium flux assay” herein refers to a fluorescence-based assay used to monitor the activity of TREK channels. Thallium is a congener of potassium that readily fluxes through the pore of TREK channels. Thallium flux is measured using a commercially available, thallium-sensitive fluorescent dye called Thallos. The detail method is described below.
CHO-K1 cells stably expressing human TREK-1 were plated in 384-well plates, cultured overnight, loaded with Thallos dye the following day. Test compounds or control compound (tert-butyl (3-((4-(benzyloxy)-2-methylphenyl)carbamoyl)-4-chlorophenyl)carbamate) or 0.3% DMSO (vehicle control) which were prepared on separate plates were added to the cell plates and incubated for 10 min, and then the cells were treated with thallium stimulus buffer to initiate thallium flux. To measure the efficacy and potency of test compounds, the change in fluorescence intensity (ΔRatio) and % inhibition were calculated using the following equations:
ΔRatio=(fluorescence intensity at 25 seconds after thallium addition)/(average of fluorescent intensity before thallium addition)
For `Cc1cc(OCc2ccccc2)ccc1NC(=O)c1c(Cl)cnn1C1CCN(C(=O)CC(C)C)CC1` [Compound 401, N-(4-(benzyloxy)-2-methylphenyl)-4-chloro-1-(1-(3-methylbutanoyl)piperidin-4-yl)-1H-pyrazole-5-carboxamide], the 50% inhibitory concentration (IC50) (usually the midpoint of a concentration-inhibition curve) came out at 1780 nM.

`Cc1cc(OCc2ccccc2)ccc1NC(=O)c1c(Cl)cnn1C1CCN(C(=O)C(C)C)CC1` [Compound 411, N-(4-(benzyloxy)-2-methylphenyl)-4-chloro-1-(1-isobutyrylpiperidin-4-yl)-1H-pyrazole-5-carboxamide] registered a 50% inhibitory concentration (IC50) of 2840 nM.

The same test, now with this note: TREK-1 Thallium (Tl+) flux assay; no *^12 (Method 2) mark on these rows.
For `Cc1cc(C#Cc2ccc(F)cc2)cnc1NC(=O)c1c(Cl)cnn1CC1CCCN(C(=O)C2CC2)C1` (stereo not shown) [Compound 271, 4-chloro-1-((1-(cyclopropanecarbonyl)piperidin-3-yl)methyl)-N-(5-((4-fluorophenyl)ethynyl)-3-methylpyridin-2-yl)-1H-pyrazole-5-carboxamide], inhibition was half-maximal at 460 nM (IC50). This lies in the sub-micromolar range.

`Cc1cc(C#Cc2ccccc2)cnc1NC(=O)c1c(Cl)cnn1CC1CC1` [Compound 278, 4-chloro-1-(cyclopropylmethyl)-N-(3-methyl-5-(phenylethynyl)pyridin-2-yl)-1H-pyrazole-5-carboxamide]: the IC50 amounted to 490 nM.

For `CCC(=O)N1CCOC(Cn2ncc(Cl)c2C(=O)Nc2ncc(C#Cc3ccc(F)cc3)cc2C)C1` (stereo not shown) [Compound 347, 4-chloro-N-(5-((4-fluorophenyl)ethynyl)-3-methylpyridin-2-yl)-1-((4-propionylmorpholin-2-yl)methyl)-1H-pyrazole-5-carboxamide], half-maximal inhibition (IC50) required 770 nM.

`Cc1cc(C#Cc2ccccc2)cnc1NC(=O)c1c(Cl)cnn1C1CC2(C1)CN(C(=O)OC(C)(C)C)C2` [Compound 330, tert-butyl 6-(4-chloro-5-((3-methyl-5-(phenylethynyl)pyridin-2-yl)carbamoyl)-1H-pyrazol-1-yl)-2-azaspiro[3.3]heptane-2-carboxylate] showed an IC50 of 650 nM.

Molecule `Cc1cc(C#Cc2ccc(F)cc2)cnc1NC(=O)c1c(Cl)cnn1CC1CCCN(C(=O)C2CC2C)C1` (stereo not shown) [Compound 264, 4-chloro-N-(5-((4-fluorophenyl)ethynyl)-3-methylpyridin-2-yl)-1-((1-(2-methylcyclopropane-1-carbonyl)piperidin-3-yl)methyl)-1H-pyrazole-5-carboxamide] yielded an IC50 of 430 nM.

In turn, `CCN1CC(n2ncc(Cl)c2C(=O)Nc2ncc(C#Cc3ccccc3)cc2C)C1` [Compound 377, 4-chloro-1-(1-ethylazetidin-3-yl)-N-(3-methyl-5-(phenylethynyl)pyridin-2-yl)-1H-pyrazole-5-carboxamide] showed an IC50 of 1710 nM.

`O=C(Nc1ncc(C#Cc2cccs2)cc1F)c1c(Cl)cnn1CCC1CCN(C(=O)C2CC2)CC1` [Compound 250, 4-chloro-1-(2-(1-(cyclopropanecarbonyl)piperidin-4-yl)ethyl)-N-(3-fluoro-5-(thiophen-2-ylethynyl)pyridin-2-yl)-1H-pyrazole-5-carboxamide] showed an IC50 of 400 nM.

The molecule `CC(C)(C)OC(=O)N1CCCC(n2ncc(Cl)c2C(=O)Nc2ncc(C#Cc3ccccc3)cc2F)CC1` (stereo not shown) [Compound 225, tert-butyl 4-(4-chloro-5-((3-fluoro-5-(phenylethynyl)pyridin-2-yl)carbamoyl)-1H-pyrazol-1-yl)azepane-1-carboxylate] returned a concentration for half-maximal inhibition (IC50) of 350 nM. The IC50 values of the last two molecules are within 1.5-fold of each other.

On to `Cc1cc(C#Cc2ccccc2)cnc1NC(=O)c1c(Cl)cnn1C1CN(C(=O)OC(C)(C)C)C1` [Compound 287, tert-butyl 3-(4-chloro-5-((3-methyl-5-(phenylethynyl)pyridin-2-yl)carbamoyl)-1H-pyrazol-1-yl)azetidine-1-carboxylate], for which the concentration for half-maximal inhibition (IC50) amounted to 500 nM.

`Cc1cc(C#Cc2ccc(F)cc2)cnc1NC(=O)c1c(Cl)cnn1CC1CCN(C(=O)C(C)C)CC1C` (stereo not shown) [Compound 284, 4-chloro-N-(5-((4-fluorophenyl)ethynyl)-3-methylpyridin-2-yl)-1-((1-isobutyryl-3-methylpiperidin-4-yl)methyl)-1H-pyrazole-5-carboxamide] registered an IC50 of 490 nM.

The same test, now with this note: TREK-1 Thallium (Tl+) flux assay; values without footnote *12 are Method 1.
As to `Cc1cc(C#Cc2ccccc2)cnc1NC(=O)c1c(Cl)cnn1CC1CCN(C(=O)OC(C)(C)C)CC1` [Compound 186, tert-butyl 4-((4-chloro-5-((3-methyl-5-(phenylethynyl)pyridin-2-yl)carbamoyl)-1H-pyrazol-1-yl)methyl)piperidine-1-carboxylate], the 50% inhibitory concentration (IC50) came out at 290 nM.

In turn, `O=C(Nc1ncc(C#Cc2cccs2)cc1F)c1c(Cl)cnn1C1CCN(C(=O)C2COCCO2)CC1` (stereo not shown) [Compound 95, 1-(1-(1,4-dioxane-2-carbonyl)piperidin-4-yl)-4-chloro-N-(3-fluoro-5-(thiophen-2-ylethynyl)pyridin-2-yl)-1H-pyrazole-5-carboxamide] came in with an IC50 of 180 nM.

As to `Cc1cc(C#Cc2ccccc2)cnc1NC(=O)c1c(Cl)cnn1CC1CCN(C(=O)C(C)C)CC1` [Compound 53, 4-chloro-1-((1-isobutyrylpiperidin-4-yl)methyl)-N-(3-methyl-5-(phenylethnyl)pyridin-2-yl)-1H-pyrazole-5-carboxamide], the IC50 came out at 140 nM.

Molecule `Cc1cc(C#Cc2ccccc2)cnc1NC(=O)c1c(Cl)cnn1[C@H]1C[C@H](NC(=O)C(C)C)C1` [Compound 183, 4-chloro-1-(trans-3-isobutyramidocyclobutyl)-N-(3-methyl-5-(phenylethynyl)pyridin-2-yl)-1H-pyrazole-5-carboxamide] displayed an IC50 of 280 nM.

In turn, `Cc1cc(C#Cc2ccccc2)cnc1NC(=O)c1c(Cl)cnn1CC1(C#N)CCN(C(=O)OC(C)(C)C)CC1` [Compound 126, tert-butyl 4-((4-chloro-5-((3-methyl-5-(phenylethynyl)pyridin-2-yl)carbamoyl)-1H-pyrazol-1-yl)methyl)-4-cyanopiperidine-1-carboxylate] came in with an IC50 of 210 nM.

`Cc1cc(C#Cc2ccccc2)cnc1NC(=O)c1c(Cl)cnn1CC1(C#N)CCN(C(=O)C(C)C)CC1` [Compound 49, 4-chloro-1-((4-cyano-1-isobutyrylpiperidin-4-yl)methyl)-N-(3-methyl-5-(phenylethynyl)pyridin-2-yl)-1H-pyrazole-5-carboxamide]: half-maximal inhibition (IC50) required 130 nM.

As for `CC(=O)N1CC[C@H](Cn2ncc(Cl)c2C(=O)Nc2ncc(C#Cc3ccccc3)cc2F)[C@H](F)C1` [Compound 48, 1-(((3S,4R)-1-acetyl-3-fluoropiperidin-4-yl)methyl)-4-chloro-N-(3-fluoro-5-(phenylethynyl)pyridin-2-yl)-1H-pyrazole-5-carboxamide], the concentration for half-maximal inhibition (IC50) is 130 nM.

With `O=C(Nc1c(F)cc(C#Cc2ccccc2)cc1F)c1c(Cl)cnn1C[C@H]1CCOC1` [Compound 162, (R)-4-chloro-N-(2,6-difluoro-4-(phenylethynyl)phenyl)-1-((tetrahydrofuran-3-yl)methyl)-1H-pyrazole-5-carboxamide], the half-maximal inhibitory concentration (IC50) was 260 nM. This IC50 lies about 2-fold higher than the previous one.

Turning to `CC(=O)N1CCOC(Cn2ncc(Cl)c2C(=O)Nc2ncc(C#Cc3ccccc3)cc2F)C1` (stereo not shown) [Compound 27, 1-((4-acetylmorpholin-2-yl)methyl)-4-chloro-N-(3-fluoro-5-(phenylethynyl)pyridin-2-yl)-1H-pyrazole-5-carboxamide], the IC50 is 90 nM.

For `Cc1cc(C#Cc2ccccc2)cnc1NC(=O)c1c(Cl)cnn1C[C@H]1CCN(C(=O)C(C)C)C[C@H]1F` [Compound 108, 4-chloro-1-(((3S,4R)-3-fluoro-1-isobutyrylpiperidin-4-yl)methyl)-N-(3-methyl-5-(phenylethynyl)pyridin-2-yl)-1H-pyrazole-5-carboxamide], half-maximal inhibition (IC50) was put at 190 nM.
